Data published in patent US20230125482A1, “PROTEIN KINASE C MODULATORS” (Young Therapeutics, LLC, priority 2020, published 2023).
Where a SMILES comes first, the peptide text is derived from it. Where no end group is shown, it is not given here. The star is where a group is joined. Myristoyl = CCCCCCCCCCCCCC(=O)*

How the values were obtained:
isolated rat hearts = experiment: Myocardial ischemia/reperfusion (I/R) injury in isolated rat hearts (Langendorff, ex vivo); conditions: for Final Coronary Flow / Final Heart Rate / Final LVDP / Final LVEDP / Final LVESP / Final dP/dtmax / Final dP/dtmin: 50 min post-reperfusion; for Initial Coronary Flow / Initial Heart Rate / Initial LVDP / Initial LVEDP / Initial LVESP / Initial dP/dtmax / Initial dP/dtmin: baseline before ischemia
Protocol: Rat hearts were isolated from anesthetized male Sprague Dawley rats (275-325 g), placed in ice-cold Krebs' buffer, and placed onto a Langendorff heart apparatus and retro perfused with Krebs' buffer at a constant pressure of 80 mmHg (FIG. 1). A pressure transducer measures heart rate, left ventricular end-systolic pressure, end-diastolic pressure, dP/dt max, and dP/dt min. Coronary flow is measured via a flow probe connected to the perfusion tubing. Cardiac function was recorded throughout the experimental protocol using a pressure transducer inserted into the left ventricle (15 min baseline; global I(30 min)/R(50 min)). Selected peptides of TABLE 1 or vehicle (control [0.05 to 0.2% Dimethylsulfoxide) were given during the first 5 min of reperfusion. All peptide inhibitors or activators were dissolved in 28% DMSO and the final concentration of DMSO with peptides or without peptides (control I/R hearts) delivered to all hearts was 0.06%. Statistical analysis was performed using ANOVA and Bonferroni-Dunn post-hoc test.
At the end of the experimental protocol, hearts were removed from the Langendorff apparatus, and frozen for 30 min at −20° C. Hearts were sectioned (2 mm) from base to apex and placed in 1% TTC for ˜10 min at 37° C. Viable tissue stained red and infarcted tissue was unstained (pale). Total tissue sections were weighed and infarcted tissue was separated from viable tissue and weighed to determine infarct size (i.e. infarct tissue weight/total tissue weight).

[1] = tested on: rat polymorphonuclear leukocytes (PMNs); experiment: PMA-stimulated superoxide release in rat polymorphonuclear leukocytes (ferricytochrome c reduction, 550 nm); assay type: cell-based; conditions: for reduction of PMA (100 nM) induced leukocyte superoxide release: vs untreated PMA controls
Protocol: Change in absorbance at 550 nm via ferricytochrome c reduction by superoxide after stimulation with 100 nM phorbol 12-myristate 13-acetate (PMA) from time 0 to 390 sec was monitored in rat polymorphonuclear leukocytes (PMNs) (5×10^6) incubated for 15 min at 37° C. in the presence/absence of unconjugated PKCβII activator (PKCβII+) (SVEIWD (SEQ ID NO: 23)) or inhibitor (PKCβII−) (SLNPEWNET(SEQ ID NO: 5)), Myr−PKCβII+/−, Myr−PKCβII− scram (Myr-WNPESLNTE (Myristoylated SEQ ID NO: 17), Myr−TAT−PKC|II− (Myristoylated SEQ ID NO: 15) (all 20 μM) or superoxide dismutase (SOD; 10 μg/mL) (FIG. 7). Stock concentrations of compounds were dissolved in DMSO to yield a final concentration not greater that 0.2%. #: p<0.05 vs PMA, Native PKC βII+, Myr−PKC βII+ and Myr−TAT−PKC βII−; **: p<0.01 vs. all groups except Myr−TAT−PKC βII− or SOD; ++: p<0.01 vs. all groups. ANOVA post-hoc analysis was conducted using Bonferroni-Dunn.
The time course of changes in absorbance are summarized in FIGS. 8 (concentration response of Myr+TAT PKCβII−) and 9 (comparison of Myr+TAT+PKCβII− and Myr−PKCβII−, Myr−PKCβII− scrambled, and PKCβII− analogues and PMA controls). The peak response was reached by 300 seconds and maintained a plateau to 390 seconds, Myr+TAT+PKCβII− (20 μM; n=5) reduced phorbol 12-myristate 13-acetate (PMA, 100 nM) induced leukocyte superoxide release by 80%—a degree that was greater than all other study groups (p<0.01). In contrast, the Myr+PKCβII− (20 μM; n=27) reduced leukocyte superoxide release by only 30% (20 μM; n=27), again supporting the concept that the dual Myr−TAT conjugation produced greater results and reduced leukocyte superoxide release by ˜80% and ˜65% as compared to untreated PMA controls (n=74) and Myr+PKCβII− (20 μM; n=27), respectively.

Solubility of peptide = assay type: physicochemical
[2] = 10 μM, I(30 min)/R(50 min), infarct tissue weight/total tissue weight
[3] = ex vivo rat I/R hearts, FIG. 4, concentration not given

Molecule: Myr-LSETKPAV (Myristoyl-LSETKPAV) [Myr + PKCε- Scram.]
- Final Coronary Flow (isolated rat hearts; 10 μM): 8 ± 2 mL/min
- Final Heart Rate (isolated rat hearts; 10 μM): 236 ± 11 BPM
- Final LVDP (isolated rat hearts; 10 μM): 51 ± 9 mmHg
- Final LVEDP (isolated rat hearts; 10 μM): 56 ± 8 mmHg
- Final LVESP (isolated rat hearts; 10 μM): 107 ± 4 mmHg
- Final dP/dtmax (isolated rat hearts; 10 μM): 958 ± 265 mmHg/s
- Final dP/dtmin (isolated rat hearts; 10 μM): −727 ± 133 mmHg/s
- Infarct Size (isolated rat hearts; [2]): 14 ± 3%
- Initial Coronary Flow (isolated rat hearts; 10 μM): 19 ± 3 mL/min
- Initial Heart Rate (isolated rat hearts; 10 μM): 278 ± 10 BPM
- Initial LVDP (isolated rat hearts; 10 μM): 87 ± 4 mmHg
- Initial LVEDP (isolated rat hearts; 10 μM): 9 ± 2 mmHg
- Initial LVESP (isolated rat hearts; 10 μM): 96 ± 6 mmHg
- Initial dP/dtmax (isolated rat hearts; 10 μM): 2307 ± 55 mmHg/s
- Initial dP/dtmin (isolated rat hearts; 10 μM): −1571 ± 72 mmHg/s

Molecule: Myr-YGRKKRRQRRRCCSLNPEWNET (Myristoyl-YGRKKRRQRRRCCSLNPEWNET; cysteine pairing not given here) [Myr+TAT+PKCβII−]
- effect on PMA induced leukocyte superoxide release (in words) ([1]; 20 μM): virtually identical to the SOD standard
- reduction of leukocyte superoxide release as compared to Myr+PKCβII− (20 μM) ([1]; 20 μM): ~65%
- reduction of PMA (100 nM) induced leukocyte superoxide release ([1]; 20 μM): 80%
- Infarct Size (isolated rat hearts; [3]): 5%

Molecule: Myr-SLNPEWNET (Myristoyl-SLNPEWNET) [Myr+PKCβII−]
- reduction of PMA (100 nM) induced leukocyte superoxide release ([1]; 20 μM): 30%
- Infarct Size (isolated rat hearts; [3]): 13±2%

Molecule: SLNPEWNET (Atificially synthesized) [PKCβII−]
- effect on PMA induced leukocyte superoxide release (in words) ([1]; 20 μM): did not exert a significant inhibition

Molecule: Superoxide dismutase [SOD, reference compound]
- attenuation of leukocyte superoxide release ([1]; 10 ug/ml, positive control): ~94%

Molecule: CCCCCCCCCCCCCC(=O)N[C@@H](CCC(=O)O)C(=O)N[C@@H](C)C(=O)N[C@H](C(=O)N[C@@H](CO)C(=O)N[C@@H](CC(C)C)C(=O)N[C@@H](CCCCN)C(=O)N1CCC[C@H]1C(=O)N[C@H](C(=O)O)[C@@H](C)O)C(C)C [Myr + PKCε-, Myr-EAVSLKPT] (Myristoyl-EAVSLKPT-OH; C-terminus assumed)
- solubility (Solubility of peptide): ≤ 10 mM
- concentration for similar restoration of post-reperfused cardiac function relative to Myr+TAT+PKCε− (isolated rat hearts): 100 ×
- reduction of infarct size compared to control I/R hearts (isolated rat hearts; 10 μM): did not reduce infarct size
- restoration of post-reperfused cardiac function (isolated rat hearts; 10 μM): ineffective
- Final Coronary Flow (isolated rat hearts; 10 μM): 10 ± 1 mL/min
- Final Heart Rate (isolated rat hearts; 10 μM): 233 ± 10 BPM
- Final LVDP (isolated rat hearts; 10 μM): 46 ± 8 mmHg
- Final LVEDP (isolated rat hearts; 10 μM): 58 ± 3 mmHg
- Final LVESP (isolated rat hearts; 10 μM): 104 ± 6 mmHg
- Final dP/dtmax (isolated rat hearts; 10 μM): 723 ± 84 mmHg/s
- Final dP/dtmin (isolated rat hearts; 10 μM): −694 ± 167 mmHg/s
- Infarct Size (isolated rat hearts; [2]): 15 ± 4%
- Initial Coronary Flow (isolated rat hearts; 10 μM): 17 ± 2 mL/min
- Initial Heart Rate (isolated rat hearts; 10 μM): 258 ± 8 BPM
- Initial LVDP (isolated rat hearts; 10 μM): 90 ± 5 mmHg
- Initial LVEDP (isolated rat hearts; 10 μM): 6 ± 1 mmHg
- Initial LVESP (isolated rat hearts; 10 μM): 95 ± 5 mmHg
- Initial dP/dtmax (isolated rat hearts; 10 μM): 2294 ± 108 mmHg/s
- Initial dP/dtmin (isolated rat hearts; 10 μM): −1548 ± 92 mmHg/s

Molecule: YGRKKRRQRRRCCEAVSLKPT (not fully specified; cysteine pairing not given here) [TAT + PKCε-]
- reduction of infarct size compared to control I/R hearts (isolated rat hearts; 10 μM): did not reduce infarct size
- Final Coronary Flow (isolated rat hearts; 10 μM): 12 ± 4 mL/min
- Final Heart Rate (isolated rat hearts; 10 μM): 242 ± 18 BPM
- Final LVDP (isolated rat hearts; 10 μM): 37 ± 12 mmHg
- Final LVEDP (isolated rat hearts; 10 μM): 63 ± 2 mmHg
- Final LVESP (isolated rat hearts; 10 μM): 100 ± 13 mmHg
- Final dP/dtmax (isolated rat hearts; 10 μM): 678 ± 223 mmHg/s
- Final dP/dtmin (isolated rat hearts; 10 μM): −723 ± 84 mmHg/s
- Infarct Size (isolated rat hearts; [2]): 18 ± 2%
- Initial Coronary Flow (isolated rat hearts; 10 μM): 20 ± 2 mL/min
- Initial Heart Rate (isolated rat hearts; 10 μM): 285 ± 10 BPM
- Initial LVDP (isolated rat hearts; 10 μM): 86 ± 5 mmHg
- Initial LVEDP (isolated rat hearts; 10 μM): 7 ± 2 mmHg
- Initial LVESP (isolated rat hearts; 10 μM): 93 ± 3 mmHg
- Initial dP/dtmax (isolated rat hearts; 10 μM): 2408 ± 126 mmHg/s
- Initial dP/dtmin (isolated rat hearts; 10 μM): −1735 ± 149 mmHg/s

Molecule: Myr-YGRKKRRQRRRCCLSETKPAV (Myristoyl-YGRKKRRQRRRCCLSETKPAV; cysteine pairing not given here) [Myr + TAT + PKCε- Scram.]
- Final Coronary Flow (isolated rat hearts; 1 nM): 7 ± 2 mL/min
- Final Heart Rate (isolated rat hearts; 1 nM): 225 ± 1 BPM
- Final LVDP (isolated rat hearts; 1 nM): 50 ± 11 mmHg
- Final LVEDP (isolated rat hearts; 1 nM): 53 ± 4 mmHg
- Final LVESP (isolated rat hearts; 1 nM): 103 ± 14 mmHg
- Final dP/dtmax (isolated rat hearts; 1 nM): 993 ± 195 mmHg/s
- Final dP/dtmin (isolated rat hearts; 1 nM): −760 ± 210 mmHg/s
- Infarct Size (isolated rat hearts; 1 nM, I(30 min)/R(50 min), infarct tissue weight/total tissue weight): 19 ± 2%
- Initial Coronary Flow (isolated rat hearts; 1 nM): 15 ± 1 mL/min
- Initial Heart Rate (isolated rat hearts; 1 nM): 278 ± 10 BPM
- Initial LVDP (isolated rat hearts; 1 nM): 87 ± 1 mmHg
- Initial LVEDP (isolated rat hearts; 1 nM): 6 ± 0.4 mmHg
- Initial LVESP (isolated rat hearts; 1 nM): 92 ± 1 mmHg
- Initial dP/dtmax (isolated rat hearts; 1 nM): 2267 ± 87 mmHg/s
- Initial dP/dtmin (isolated rat hearts; 1 nM): −1490 ± 82 mmHg/s
- Final Coronary Flow (isolated rat hearts; 100 nM): 12 ± 4 mL/min
- Final Heart Rate (isolated rat hearts; 100 nM): 295 ± 29 BPM
- Final LVDP (isolated rat hearts; 100 nM): 36 ± 12 mmHg
- Final LVEDP (isolated rat hearts; 100 nM): 57 ± 10 mmHg
- Final LVESP (isolated rat hearts; 100 nM): 93 ± 9 mmHg
- Final dP/dtmax (isolated rat hearts; 100 nM): 706 ± 223 mmHg/s
- Final dP/dtmin (isolated rat hearts; 100 nM): −677 ± 222 mmHg/s
- Infarct Size (isolated rat hearts; 100 nM, I(30 min)/R(50 min), infarct tissue weight/total tissue weight): 14 ± 3%
- Initial Coronary Flow (isolated rat hearts; 100 nM): 21 ± 6 mL/min
- Initial Heart Rate (isolated rat hearts; 100 nM): 271 ± 16 BPM
- Initial LVDP (isolated rat hearts; 100 nM): 91 ± 5 mmHg
- Initial LVEDP (isolated rat hearts; 100 nM): 9 ± 2 mmHg
- Initial LVESP (isolated rat hearts; 100 nM): 100 ± 4 mmHg
- Initial dP/dtmax (isolated rat hearts; 100 nM): 2300 ± 189 mmHg/s
- Initial dP/dtmin (isolated rat hearts; 100 nM): −1545 ± 117 mmHg/s
- Final Coronary Flow (isolated rat hearts; 10 μM): 3 ± 0.1 mL/min
- Final Heart Rate (isolated rat hearts; 10 μM): 684 ± 167 BPM
- Final LVDP (isolated rat hearts; 10 μM): 3 ± 2 mmHg
- Final LVEDP (isolated rat hearts; 10 μM): 70 ± 10 mmHg
- Final LVESP (isolated rat hearts; 10 μM): 72 ± 8 mmHg
- Final dP/dtmax (isolated rat hearts; 10 μM): 27 ± 9 mmHg/s
- Final dP/dtmin (isolated rat hearts; 10 μM): −24 ± 8 mmHg/s
- Infarct Size (isolated rat hearts; [2]): 16 ± 6%
- Initial Coronary Flow (isolated rat hearts; 10 μM): 18 ± 1 mL/min
- Initial Heart Rate (isolated rat hearts; 10 μM): 275 ± 12 BPM
- Initial LVDP (isolated rat hearts; 10 μM): 86 ± 1 mmHg
- Initial LVEDP (isolated rat hearts; 10 μM): 6 ± 1 mmHg
- Initial LVESP (isolated rat hearts; 10 μM): 92 ± 0.3 mmHg
- Initial dP/dtmax (isolated rat hearts; 10 μM): 2309 ± 69 mmHg/s
- Initial dP/dtmin (isolated rat hearts; 10 μM): −1604 ± 71 mmHg/s

Molecule: Myr-WNPESLNTE (Myristoyl-WNPESLNTE) [Myr−PKCβII− scrambled]
- effect on PMA induced leukocyte superoxide release (in words) ([1]; 20 μM): increased
- Infarct Size (isolated rat hearts; [3]): 22±2%
